Measurements published in patent US12138262B2, “Process of manufacture of a compound for inhibiting the activity of SHP2, as well as products resulting from acid addition” (Novartis AG, priority 2018, dated 2024).

What was measured:
Assay type in all cases: physicochemical
[1] = Excipient compatibility: degradation in experimental excipient mixtures at 50° C./75% RH
[2] = Dynamic vapor sorption / water content versus relative humidity; conditions: 10% RH to 50% RH at room temperature
Procedure: DVS/Dynamic Vapor Sorption) data were obtained as follows: Dynamic vapor sorption was performed using a SMS Advantage system. Approximately 10 mg of sample was subjected to varying humidities between 0% RH and 95% RH at 25° C. Evaluation was performed using the system software.

[3] = Form conversion in aqueous organic solvent mixtures; conditions: aqueous organic solvent mixtures with very small quantities of water (1-2%)

With C[C@@H]1OCC2(CCN(c3cnc(Sc4ccnc(N)c4Cl)c(N)n3)CC2)[C@@H]1N.C[C@@H]1OCC2(CCN(c3cnc(Sc4ccnc(N)c4Cl)c(N)n3)CC2)[C@@H]1N.O.O=C(O)CCC(=O)O.O=C(O)CCC(=O)O [Example 6, (3S,4S)-8-(6-amino-5-((2-amino-3-chloropyridin-4-yl)thio)pyrazin-2-yl)-3-methyl-2-oxa-8-azaspiro[4.5]decan-4-amine, succinate (1:1) hemihydrate, modification (form) HA] the “degradation levels in excipient mixtures” value ([1]; all four experimental excipient mixtures (Mixtures 1-4)) was “acceptable degradation levels” and the “water content over 10% RH to 50% RH” value [2] was “constant water content”.
For C[C@@H]1OCC2(CCN(c3cnc(Sc4ccnc(N)c4Cl)c(N)n3)CC2)[C@@H]1N.O=C(O)CCCCC(=O)O [Example 10, (3S,4S)-8-(6-amino-5-((2-amino-3-chloropyridin-4-yl)thio)pyrazin-2-yl)-3-methyl-2-oxa-8-azaspiro[4.5]decan-4-amine adipate (1:1), Modification A], the “degradation with mixture containing mannitol, Ac-di-Sol and microcrystalline cellulose” value ([1]; mixture containing mannitol, Ac-di-Sol and microcrystalline cellulose (Mixture 4)) was “strong degradation”.
For C[C@@H]1OCC2(CCN(c3cnc(Sc4ccnc(N)c4Cl)c(N)n3)CC2)[C@@H]1N.O=C(O)CCC(=O)O [Example 11, (3S,4S)-8-(6-amino-5-((2-amino-3-chloropyridin-4-yl)thio)pyrazin-2-yl)-3-methyl-2-oxa-8-azaspiro[4.5]decan-4-amine, succinate (1:1), anhydrous form, Modification A], the “conversion of solid form” value [3] was “rapidly converted into Modification HA”.
In the case of C[C@@H]1OCC2(CCN(c3cnc(Sc4ccnc(N)c4Cl)c(N)n3)CC2)[C@@H]1N [Example 13, (3S,4S)-8-(6-amino-5-((2-amino-3-chloropyridin-4-yl)thio)pyrazin-2-yl)-3-methyl-2-oxa-8-azaspiro[4.5]decan-4-amine free base Modification A], the “degradation with excipient mixture containing HPMC” value ([1]; mixture containing HPMC (Mixture 2)) was “strong degradation”.
